Measurements: article PMC6778101 (Nature Communications, 2019)
Ends that are not written are not given here. Peptide text beside a SMILES is read from it.

Key:
[1] = system: E. coli K-12 BW25113; assay: microbe, parasite or virus in culture; assay type: cell-based, Escherichia coli; conditions: for MIC: starting wild-type strain of the evolution experiment, broth dilution, MS medium, 5 × 10^5 cells/mL, 30 °C, 24 h, MIC = OD600 < 0.05; for MIC in 30 °C / MIC in 37 °C: strain not given
[2] = system: E. coli K-12 BW25113 carrying ASKA plasmids; assay: microbe, parasite or virus in culture; assay type: cell-based, Escherichia coli; conditions: for MIC fold change: MIC of ASKA pooled library / MIC of E.coli carrying empty ASKA plasmid; for MIC value of E. coli K-12 BW25113 carrying the empty plasmid of the ASKA library / MIC value of E. coli K-12 BW25113 carrying the pooled plasmids of the ASKA library: MS medium + 10 µg mL−1 CHL + 500 µM IPTG, 5 × 10^5 cells, 16–18 h, 37 °C; for Average fold change of the 3 replicates (MIC pooled ASKA library / MIC empty plasmid): mean of three biological replicates
Method in brief: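 E. coli BW25113 transformed with the pooled ASKA ORF overexpression library, or empty-vector control, grown with CHL, induced with IPTG.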

[3] = replicate 1 (first line per drug)
[4] = replicate 2 (second line per drug)
[5] = replicate 3 (third line per drug)

Compound	MIC [1]	MIC fold change [2, 3]	MIC fold change [2, 4]	MIC fold change [2, 5]	MIC value of E. coli K-12 BW25113 carrying the empty plasmid of the ASKA library ([2]; Replicate 1)	MIC value of E. coli K-12 BW25113 carrying the pooled plasmids of the ASKA library ([2]; Replicate 1)	MIC value of E. coli K-12 BW25113 carrying the empty plasmid of the ASKA library ([2]; Replicate 2)	MIC value of E. coli K-12 BW25113 carrying the pooled plasmids of the ASKA library ([2]; Replicate 2)	MIC value of E. coli K-12 BW25113 carrying the empty plasmid of the ASKA library ([2]; Replicate 3)	MIC value of E. coli K-12 BW25113 carrying the pooled plasmids of the ASKA library ([2]; Replicate 3)	Average fold change of the 3 replicates (MIC pooled ASKA library / MIC empty plasmid) [2]	MIC in 30 °C ([1]; incubation time 24 hour)	MIC in 37 °C ([1]; incubation time 24 hour)	MIC in 30 °C ([1]; incubation time 48 hour)	MIC in 37 °C ([1]; incubation time 48 hour)	MIC in 30 °C ([1]; incubation time 72 hour)	MIC in 37 °C ([1]; incubation time 72 hour)	MM (median of MICs) ([1]; median of MICs in E. coli K12)
NC[C@H]1O[C@H](O[C@H]2[C@H](O)[C@@H](O[C@H]3O[C@H](CO)[C@@H](O)[C@H](N)[C@H]3O)[C@H](N)C[C@@H]2N)[C@H](O)[C@@H](O)[C@@H]1O [KAN, Kanamycin]	8 µg/mL	1.3	1.3	1.69	9.65 µg/mL	12.55 µg/mL	7.43 µg/mL	9.65 µg/mL	7.43 µg/mL	12.55 µg/mL	1.43	–	–	–	–	–	–	–
CC[C@H](C)[C@@H]1NC(=O)CNC(=O)[C@H](CCCNC(=N)N)NC(=O)[C@H](Cc2ccc(O)cc2)NC(=O)[C@@H]2CSSC[C@H](NC1=O)C(=O)N[C@@H](Cc1ccc(O)cc1)C(=O)N[C@@H](CCCNC(=N)N)C(=O)N[C@@H](CCCCN)C(=O)N[C@H](C(=O)N[C@@H](CCCNC(=N)N)C(N)=O)CSSC[C@H](NC(=O)[C@H](Cc1c[nH]c3ccccc13)NC(=O)[C@@H](N)CCCNC(=N)N)C(=O)N[C@@H](Cc1ccccc1)C(=O)N[C@@H](CCCNC(=N)N)C(=O)N[C@@H](C(C)C)C(=O)N2 [TPII, tachyplesin II] (HELM PEPTIDE1{R.W.C.F.R.V.C.Y.R.G.I.C.Y.R.K.C.R.[am]}$PEPTIDE1,PEPTIDE1,3:R3-16:R3|PEPTIDE1,PEPTIDE1,7:R3-12:R3$$$V2.0; N-terminus and C-terminus assumed; bridges inferred)	–	1	1	1	–	–	–	–	–	–	1.00	5 µg/mL	5 µg/mL	5 µg/mL	6 µg/mL	6 µg/mL	6 µg/mL	–
SWLSKTAKKLENSAKKRISEGIAIAIQGGPR [CP1, Cecropin P1]	100 µg/mL	–	–	–	2.31 µg/mL	2.31 µg/mL	2.31 µg/mL	2.31 µg/mL	2.31 µg/mL	2.31 µg/mL	–	–	–	–	–	–	–	2.95 µg/mL
